Data: PMC6984391, “Anion carriers as potential treatments for cystic fibrosis: transport in cystic fibrosis cells, and additivity to channel-targeting drugs” (Chemical Science, 2019)

Tests used:
YFP-FRT cells [1] = experiment: YFP fluorescence plate reader assay of anion transport in YFP-FRT cells; type: cell-based, Fischer rat; conditions: for Corrected absolute initial slope |dF/dT|: transporter 50 μM, DMSO 0.5% v/v, DMSO-only subtracted, I^– 100 mM; for anion transport activity in YFP-FRT cells (in words): 50 μM
Method: We treated YFP-FRT cells with anionophores (final concentration, 1–50 μM) or the vehicle DMSO (0.1–0.5% v/v) by direct addition to the phosphate-buffered saline (PBS) bathing the cells. After incubating YFP-FRT cells with anionophores for 10 minutes at 37 °C, we evaluated anion transport activity by adding I^– (100 mM), using a PBS iodide solution with Cl^– replaced by I^–, and following cell fluorescence for 14 s. FRT cells are relatively impermeable to anions because they lack key ion channels found in epithelial cells, including CFTR.[33] Thus, in the absence of anionophore, iodide cannot enter YFP-FRT cells and no quenching of fluorescence occurs. By contrast, in the presence of an anionophore, iodide influx occurs leading to fluorescence quenching.[29]
To quantify anion transport by different anionophores, we fitted first order exponential functions to the iodide-induced fluorescence decay to measure the initial slope, averaging values over multiple experiments. Fig. 2b and Table 1 summarise the data. Consistent with our previous results,[29] we observed a wide range of anion transport activity. […] We therefore selected for further study 11, 12, 15 and 19.
FRT cells stably expressing the halide sensor YFP-H148Q/I152L6 were generous gifts of AS Verkman (University of California, San Francisco), while CFBE41o- cells7 stably expressing YFP (YFP-CFBE cells) were a generous gift of LJV Galietta (Telethon Institute for […]
Genetics and Medicine). […]
U ml-1 penicillin and […] streptomycin. All cells were incubated at 37 °C in a humidified atmosphere with 5% CO2. […]
Fluorescence plate reader assay […]
quenching of YFP fluorescence at 37 °C using a microplate reader following the method of Galietta et al..9 The microplate reader (model: FLUORstar Omega; BMG LABTECH Ltd., Aylesbury, UK) was equipped with a syringe pump and excitation (500 ± 10 nm) and emission (535 ± 15 nm) filters (Chroma Technology GmbH, Olching, Germany). After washing cells twice with PBS (composition (mM): 137 NaCl, 2.7 KCl, 8.1 Na2HPO4, 1.5 KH2PO4, 1 CaCl2 and 0.5 MgCl2, pH 7.40), cells were incubated with test anionophores (1 – 50 µM) or the vehicle (DMSO [0.1 – 0.5% v v-1]) in 40 µl of PBS for 10 – 120 minutes according to the experimental design. Other compounds, including forskolin, ivacaftor and channel inhibitors were added to […]
the PBS bathing cells 10 minutes prior to PBS iodide addition, whereas UTP was added to cells with the PBS iodide solution. Fluorescence was measured for 14 seconds; 2 seconds before and 12 seconds after injection of 110 µl PBS iodide solution (137 mM Cl- replaced by I-) into each well (to obtain a final concentration of I- of 100 mM).
We expressed cell fluorescence values (F) relative to the fluorescence value immediately before I- injection (F0), excluding the initial decrease, which likely represents the quenching of extracellular YFP released from cells and signal reduction accompanying the increase in solution volume bathing cells. To quantify anion transport by test anionophores, we determined the initial slope of the fluorescence decay following I - addition by fitting first order exponential functions to the last 12 seconds of each fluorescence recording. In each experim ent, n values represent the mean of two replicates and all treatments were tested at least three times using different microplates. […]
FRT cells was selected and the cells were perfused with (i) PBS for 5 minutes then (ii) PBS containing I- (10 mM) (made by preparing PBS with 127 mM NaCl to maintain osmolarity) for 5 minutes and finally (iii) PBS for 30 minutes to remove thoroughly I- from the perfusion chamber. YFP-FRT cells were repeatedly treated with I- (10 mM) and then washed with PBS […]
During all interventions, the rate of solution perfusion was 8 – 10 ml min-1; temperature was 37 °C and except for the first

YFP-FRT cells [2] = experiment: IncuCyte ZOOM live-cell viability (DRAQ7) in YFP-FRT cells; type: cell-based
Method: For cytotoxicity studies, we used YFP-CFBE and YFP-FRT cells. […]
To evaluate the viability of YFP -FRT cells, we used the IncuCyte ZOOM TM (Essen Bioscience (now Sartorius), Welwyn Garden City, UK) live-cell analysis system. YFP-FRT cells were seeded in 96-well plates at a density of 4000 cells well-1 and allowed to grow for 48 h at 37 °C in a humidified atmosphere of 5% CO2. Then, the YFP-FRT culture media was replaced with fresh culture media containing test anionophores or the vehicle (DMSO 0.5% v v-1) and deep red anthraquinone 7 (DRAQ7; Biostatus, Shepshed, UK) was added following the manufacturer’s instructions before the YFP-FRT cells were transferred to the IncuCyte ZOOMTM. At 2 h intervals over a 24 h period, 4 images of each well on 96-well plates were acquired; the phase contrast images were used to determine the total number of cells per well, while the fluorescence images to identify the number of dead cells with nuclei labelled red by DRAQ7. In each experiment, one data point is the average value from four wells. […]
To investigate further the cytotoxicity of anionophores 12, 15 and 19 we used YFP-FRT cells. As a control we tested compound 11. Using the IncuCyte ZOOMTM (Essen Bioscience) live-cell analysis system and the membrane impermeable far-red fluorescent DNA dye DRAQ7 to label the nuclei of dead cells, we examined the effects of the anionophores 11, 12, 15 and 19 on the viability of YFP -FRT cells over a 24 h period. Consistent with our previous results (Fig.
S23 and ref 10), compound 11 had little effect on cell viability. Only at the highest concentrations tested (30 and 50 µM) and at time points later than 12 h (50 µM) or 14 h (30 µM) did cytotoxicity become apparent ( P < 0.05 vs. DMSO 0.5% v v -1) (Fig. S24). By contrast, the same concentrations of compounds 12, 15 and 19 had cytotoxic effects from 2 h with […]
19 (10 µM) from 8 h onwards (P < 0.05 vs. DMSO 0.5% v v -1) (Fig. S24).

[3] = 10 μM, 24 h period, P < 0.05 vs. DMSO
[4] = 30 μM, 24 h period, P < 0.05 vs. DMSO
[5] = 50 μM, 24 h period, P < 0.05 vs. DMSO

SMILES	Corrected absolute initial slope |dF/dT| (YFP-FRT cells [1])	anion transport activity in YFP-FRT cells (in words) (YFP-FRT cells [1])	other results
COCCOCCOC(=O)[C@]12CC[C@@H](NC(=O)Nc3ccc(C(F)(F)F)cc3)C[C@@H]1C[C@@H](NC(=O)Nc1ccc(C(F)(F)F)cc1)CC2 [Compound 9]	1.1 ×10^–3 s^–1	–	–
COCCOCCOC(=O)[C@]12CC[C@@H](NC(=O)Nc3cc(C(F)(F)F)cc(C(F)(F)F)c3)C[C@@H]1C[C@@H](NC(=O)Nc1cc(C(F)(F)F)cc(C(F)(F)F)c1)CC2 [Compound 10]	0.7 ×10^–3 s^–1	–	–
CCOC(=O)[C@]12CC[C@@H](NC(=S)Nc3ccc([N+](=O)[O-])cc3)C[C@@H]1C[C@@H](NC(=S)Nc1ccc([N+](=O)[O-])cc1)CC2 [Compound 12]	17.2 ×10^–3 s^–1	notable decays in fluorescence	time points at which cytotoxicity is apparent (YFP-FRT cells [2]; rat, 24 h, 30 µM): ≥ 2 h; time points at which cytotoxicity is apparent (YFP-FRT cells [2]; rat, 24 h, 50 µM): ≥ 2 h
CCCCCCCCOC(=O)[C@]12CC[C@@H](NC(=S)Nc3ccc([N+](=O)[O-])cc3)C[C@@H]1C[C@@H](NC(=S)Nc1ccc([N+](=O)[O-])cc1)CC2 [Compound 13]	3.3 ×10^–3 s^–1	intermediate levels	–
CCOC(=O)[C@]12CC[C@@H](NC(=S)Nc3cc(C(F)(F)F)cc(C(F)(F)F)c3)C[C@@H]1C[C@@H](NC(=S)Nc1cc(C(F)(F)F)cc(C(F)(F)F)c1)CC2 [Compound 15]	22.6 ×10^–3 s^–1	notable decays in fluorescence	time points at which cytotoxicity is apparent (YFP-FRT cells [2]; 5 μM, 24 h period, P < 0.05 vs. DMSO): ≥ 2 h; toxicity (IncuCyte ZOOM) (YFP-FRT cells [2]; 10 μM): some cell death; time points at which cytotoxicity is apparent (YFP-FRT cells [2]; [3]): ≥ 2 h; time points at which cytotoxicity is apparent (YFP-FRT cells [2]; [4]): ≥ 2 h; time points at which cytotoxicity is apparent (YFP-FRT cells [2]; [5]): ≥ 2 h
FC(F)(F)c1ccc(NC(=S)NCCN(CCNC(=S)Nc2ccc(C(F)(F)F)cc2)CCNC(=S)Nc2ccc(C(F)(F)F)cc2)cc1 [Compound 18]	1.1 ×10^–3 s^–1	–	–
FC(F)(F)c1cc(NC(=S)NCCN(CCNC(=S)Nc2cc(C(F)(F)F)cc(C(F)(F)F)c2)CCNC(=S)Nc2cc(C(F)(F)F)cc(C(F)(F)F)c2)cc(C(F)(F)F)c1 [Compound 19]	12.2 ×10^–3 s^–1	notable decays in fluorescence	toxicity (IncuCyte ZOOM) (YFP-FRT cells [2]; 10 μM): some cell death; time points at which cytotoxicity is apparent (YFP-FRT cells [2]; [3]): ≥ 8 h; time points at which cytotoxicity is apparent (YFP-FRT cells [2]; [4]): ≥ 2 h; time points at which cytotoxicity is apparent (YFP-FRT cells [2]; [5]): ≥ 2 h
